Consider 19 compounds from patent US20260092073A1, “NOVEL COMPOUNDS” (Hoffmann-La Roche Inc., priority 2023, published 2026).

Test [1] concerns the target T1, NLRP3 (Homo sapiens, UniProt Q96P20). The test is described as follows: THP-1 cells pyroptosis assay. In kind it is cell-based. Also on record: Seed THP-1 cells (25,000 cells/well) containing 1.0 μg/ml LPS; host or cells: THP-1 cells, LPS-primed, nigericin-stimulated. The settings on record: LPS 1.0 μg/ml, nigericin 5 μM, resazurin readout. The text has this:
It is well established that the activation of NLRP3 leads to cell pyroptosis and this feature plays an important part in the manifestation of clinical disease (Yan-gang Liu et al., Cell Death & Disease, 2017, 8(2), e2579; Alexander Wree et al., Hepatology, 2014, 59(3), 898-910; Alex Baldwin et al., Journal of Medicinal Chemistry, 2016, 59(5), 1691-1710; Ema Ozaki et al., Journal of Inflammation Research, 2015, 8, 15-27; Zhen Xie & Gang Zhao, Neuroimmunology Neuroinflammation, 2014, 1(2), 60-65; Mattia Cocco et al., Journal of Medicinal Chemistry, 2014, 57(24), 10366-10382; T. Satoh et al., Cell Death & Disease, 2013, 4, e644). Therefore, it is anticipated that inhibitors of NLRP3 will block pyroptosis, as well as the release of pro-inflammatory cytokines (e.g. […]) from the cell.
THP-1 cells (ATCC #TIB-202) were grown in RPMI containing L-glutamine (Gibco #11835) supplemented with 1 mM sodium pyruvate (Sigma #S8636) and penicillin (100 units/ml)/streptomycin (0.1 mg/ml) (Sigma #P4333) in 10% Fetal Bovine Serum (FBS) (Sigma #F0804). The cells were routinely passaged and grown to confluency (˜10^6 cells/ml). On the day of the experiment, THP-1 cells were harvested and resuspended into RPMI medium (without FBS). The cells were then counted and viability (>90%) checked by Trypan blue (Sigma #T8154). Appropriate dilutions were made to give a concentration of 625,000 cells/ml. To this diluted cell solution was added LPS (Sigma #L4524) to give a […] Final Assay Concentration (FAC). 40 μl of the final preparation was aliquoted into each well of a 96-well plate. The plate thus prepared was used for compound screening.
The following method step-by-step assay was followed for compound screening.
Seed THP-1 cells (25,000 cells/well) containing 1.0 μg/ml LPS in 40 μl of RPMI medium (without FBS) in 96-well, black walled, clear bottom cell culture plates coated with poly-D-lysine (VWR #734-0317)
Add 5 μl compound (8 points half-log dilution, with 10 μM top dose) or vehicle (DMSO 0.1% FAC) to the appropriate wells
(§1) Incubate for 3 hours at 37° C., 5% CO2
Add 5 μl nigericin (Sigma #N7143) (FAC 5 μM) to all wells
(§2) Incubate for 1 hr at 37° C., 5% CO2
At the end of the incubation period, spin plates at 300 xg for 3 mins and remove supernatant
Then add 50 μl of resazurin (Sigma #R7017) (FAC 100 μM resazurin in RPMI medium without FBS) and incubate plates for a further 1-2 hours at 37° C. and 5% CO2
Plates were read in an Envision reader at Ex 560 nm and Em 590 nm
(§3) IC50 data is fitted to a non-linear regression equation (log inhibitor vs response-variable slope 4-parameters)
In general terms: Resazurin is reduced to fluorescent resorufin, in cell work by metabolically active cells.

The target of test [2] is T1, NLRP3. The experiment in a line: Human whole blood IL-1β release assay. The test is classed as cell-based. On the set-up: Human whole blood in Li-heparin tubes was obtained from healthy donors; from tissue; host or cells: human whole blood from healthy donors. The settings on record: LPS, nigericin 10 μM, IL-1β by AlphaLisa. The procedure:
For systemic delivery, the ability to inhibit NLRP3 when the compounds are present within the bloodstream is of great importance. For this reason, the NLRP3 inhibitory activity of a number of compounds in human whole blood was investigated in accordance with the following protocol.
Human whole blood in Li-heparin tubes was obtained from healthy donors from a volunteer donor panel.
Plate out 80 μl of whole blood containing […] of LPS in 96-well, clear bottom cell culture plate (Corning #3585)
Add 10 μl compound (8 points half-log dilution with 10 μM top dose) or vehicle (DMSO 0.1% FAC) to the appropriate wells
as §1
Add 10 μl nigericin (Sigma #N7143) (10 μM FAC) to all wells
as §2
At the end of the incubation period, spin plates at 300 xg for 5 mins to pellet cells and remove 20 μl of supernatant and add to 96-well v-bottom plates for IL-1β analysis (note: these plates containing the supernatants can be stored at −80° C. to be analysed at a later date)
IL-1β was measured according to the manufacturer protocol (Perkin Elmer-AlphaLisa IL-1 Kit AL220F-5000)
as §3
(In Alpha technology, singlet oxygen from a donor bead excites a nearby acceptor bead.)

T1 sequence (Q96P20 whole entry): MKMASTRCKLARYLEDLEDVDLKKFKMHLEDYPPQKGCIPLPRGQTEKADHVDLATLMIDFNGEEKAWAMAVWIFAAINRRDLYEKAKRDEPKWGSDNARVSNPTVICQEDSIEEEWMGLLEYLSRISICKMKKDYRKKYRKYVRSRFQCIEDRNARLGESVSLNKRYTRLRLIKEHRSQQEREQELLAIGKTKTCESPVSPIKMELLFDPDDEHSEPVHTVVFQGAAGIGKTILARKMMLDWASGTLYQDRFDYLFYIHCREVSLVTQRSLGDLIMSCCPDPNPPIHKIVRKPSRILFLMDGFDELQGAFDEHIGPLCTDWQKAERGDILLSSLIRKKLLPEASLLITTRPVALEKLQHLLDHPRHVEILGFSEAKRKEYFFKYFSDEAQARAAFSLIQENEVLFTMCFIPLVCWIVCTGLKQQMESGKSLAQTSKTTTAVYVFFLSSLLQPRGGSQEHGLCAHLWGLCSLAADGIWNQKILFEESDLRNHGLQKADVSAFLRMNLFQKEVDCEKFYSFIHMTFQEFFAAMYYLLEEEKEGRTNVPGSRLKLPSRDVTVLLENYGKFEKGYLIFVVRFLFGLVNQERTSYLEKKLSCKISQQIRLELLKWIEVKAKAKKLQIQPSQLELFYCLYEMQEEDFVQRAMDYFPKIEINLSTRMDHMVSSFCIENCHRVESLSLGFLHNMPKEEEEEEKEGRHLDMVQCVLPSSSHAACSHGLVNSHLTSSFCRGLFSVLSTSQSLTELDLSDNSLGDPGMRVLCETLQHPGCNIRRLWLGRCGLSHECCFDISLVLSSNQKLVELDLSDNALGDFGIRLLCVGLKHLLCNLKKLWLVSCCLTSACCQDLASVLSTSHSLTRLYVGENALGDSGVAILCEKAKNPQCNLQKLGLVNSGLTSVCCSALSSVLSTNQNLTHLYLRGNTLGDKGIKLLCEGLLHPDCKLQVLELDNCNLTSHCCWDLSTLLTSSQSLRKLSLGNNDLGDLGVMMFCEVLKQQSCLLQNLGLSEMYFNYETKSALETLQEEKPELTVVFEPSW

What is called IC50 is the concentration that inhibits the measured activity by half. Consider `Cc1cc(C#N)cc(O)c1-c1cnc2oc(N[C@@H]3CCCN(CCO)C3)nc2n1` [Example 10, 3-Hydroxy-4-[2-[[(3R)-1-(2-hydroxyethyl)-3-piperidyl]amino]oxazolo[4,5-b]pyrazin-5-yl]-5-methyl-benzonitrile], for which the values for the IC50 against NLRP3 [1] and on NLRP3 [2] were 5 nM and 29 nM, respectively.

In the case of `COc1cc(-c2c(C)cc(C#N)cc2O)nc2nc(N[C@@H]3CCCN(CCO)C3)oc12` [Example 8, 3-Hydroxy-4-[2-[[(3R)-1-(2-hydroxyethyl)-3-piperidyl]amino]-7-methoxy-oxazolo[4,5-b]pyridin-5-yl]-5-methyl-benzonitrile;2,2,2-trifluoroacetic Acid], the IC50 against NLRP3 [1] was determined as 11 nM; on NLRP3 [2], 28 nM.

Regarding `Cc1cc(C#N)cc(O)c1-c1cnc2oc(N[C@@H]3C[C@H](O)CN(C)C3)nc2n1` [Example 7, 3-Hydroxy-4-[2-[[(3R,5S)-5-hydroxy-1-methyl-3-piperidyl]amino]oxazolo[4,5-b]pyrazin-5-yl]-5-methyl-benzonitrile;2,2,2-trifluoroacetic Acid], the figures for the IC50 against NLRP3 [1] and at NLRP3 [2] were 10 nM and 17 nM, respectively.

In the case of `Cc1cc(C#N)cc(O)c1-c1ccc2oc(N[C@@H]3CCCN(CCc4ncco4)C3)nc2n1` [Example 4, 3-Hydroxy-5-methyl-4-[2-[[(3R)-1-(2-oxazol-2-ylethyl)-3-piperidyl]amino]oxazolo[4,5-b]pyridin-5-yl]benzonitrile], the IC50 at NLRP3 [1] came to 26.1 nM; on NLRP3 [2] it was 192 nM.

The compound `COCc1cc2c(c(O)c1-c1cc(OC)c3oc(N[C@@H]4CCCN(CCO)C4)nc3n1)CCO2` [Example 21, 5-[2-[[(3R)-1-(2-Hydroxyethyl)-3-piperidyl]amino]-7-methoxy-oxazolo[4,5-b]pyridin-5-yl]-6-(methoxymethyl)-2,3-dihydrobenzofuran-4-ol] had an IC50 on NLRP3 [1] of 9 nM.

With `Cc1cc(C#N)cc(O)c1-c1ccc2oc(N[C@H]3CNC[C@@H](O)C3)nc2n1` [Example 9, 3-Hydroxy-4-[2-[[(3R,5S)-5-hydroxy-3-piperidyl]amino]oxazolo[4,5-b]pyridin-5-yl]-5-methyl-benzonitrile], the IC50 came to 45 nM against NLRP3 [1] and 84 nM against NLRP3 [2].

Take `COc1cc(-c2c(C)cc3c(c2O)CCC3)nc2nc(N[C@@H]3CCCN(CCO)C3)oc12` [Example 19, 5-[2-[[(3R)-1-(2-Hydroxyethyl)-3-piperidyl]amino]-7-methoxy-oxazolo[4,5-b]pyridin-5-yl]-6-methyl-indan-4-ol]: the IC50 at NLRP3 [1] was 4 nM.

Consider `Cc1cc2c(c(O)c1-c1cnc3oc(N[C@@H]4CCCN(CCO)C4)nc3n1)CCO2` [Example 13, 5-[2-[[(3R)-1-(2-Hydroxyethyl)-3-piperidyl]amino]oxazolo[4,5-b]pyrazin-5-yl]-6-methyl-2,3-dihydrobenzofuran-4-ol], for which the IC50 was 0.8 nM against NLRP3 [1] and 19 nM at NLRP3 [2].

As to `CCN1C[C@@H](O)C[C@@H](Nc2nc3nc(-c4c(C)cc(C#N)cc4O)cnc3o2)C1` [Example 17, 4-[2-[[(3R,5S)-1-Ethyl-5-hydroxy-3-piperidyl]amino]oxazolo[4,5-b]pyrazin-5-yl]-3-hydroxy-5-methyl-benzonitrile], the IC50 against NLRP3 [1] is 3 nM; at NLRP3 [2], 18 nM.

Turning to `Cc1cc(C(F)(F)F)cc(O)c1-c1ccc2oc(N[C@@H]3C[C@H](O)CN(CCO)C3)nc2n1` [Example 6, (3S,5R)-1-(2-Hydroxyethyl)-5-[[5-[2-hydroxy-6-methyl-4-(trifluoromethyl)phenyl]oxazolo[4,5-b]pyridin-2-yl]amino]piperidin-3-ol], the values for the IC50 against NLRP3 [1] and against NLRP3 [2] were 12 nM and 95 nM, respectively.

For `Cc1cc(C#N)cc(O)c1-c1ccc2oc(N[C@@H]3CCCN(CCCc4ncco4)C3)nc2n1` [Example 28, 3-Hydroxy-5-methyl-4-[2-[[(3R)-1-(3-oxazol-2-ylpropyl)-3-piperidyl]amino]oxazolo[4,5-b]pyridin-5-yl]benzonitrile], the IC50 worked out at 23 nM on NLRP3 [1] and 86 nM against NLRP3 [2].

Regarding `COc1cc(-c2c(C)cc(C#N)cc2O)nc2nc(N[C@@H]3CCCN(CCO)C3)oc12` [Example 16, 3-Hydroxy-4-[2-[[(3R)-1-(2-hydroxyethyl)-3-piperidyl]amino]-7-methoxy-oxazolo[4,5-b]pyridin-5-yl]-5-methyl-benzonitrile], the values for the IC50 at NLRP3 [1] and at NLRP3 [2] were 8 nM and 22 nM, respectively.

As to `COCc1cc(C#N)cc(O)c1-c1ccc2oc(N[C@@H]3CCCN(CCO)C3)nc2n1` [Example 3, 3-Hydroxy-4-[2-[[(3R)-1-(2-hydroxyethyl)-3-piperidyl]amino]oxazolo[4,5-b]pyridin-5-yl]-5-(methoxymethyl)benzonitrile], the IC50 against NLRP3 [1] is 27.9 nM; on NLRP3 [2], 35.2 nM.

On to `CCN1C[C@@H](O)C[C@@H](Nc2nc3nc(-c4c(O)cc(C#N)cc4COC)cnc3o2)C1` [Example 23, 4-[2-[[(3R,5S)-1-Ethyl-5-hydroxy-3-piperidyl]amino]oxazolo[4,5-b]pyrazin-5-yl]-3-hydroxy-5-(methoxymethyl)benzonitrile;2,2,2-trifluoroacetic Acid], for which the results for the IC50 against NLRP3 [1] and at NLRP3 [2] were 44 nM and 34 nM, respectively.

In the case of `Cc1cc(C#N)cc(O)c1-c1cnc2oc(N[C@@H]3CCCN(CCO)C3)nc2n1` [Example 1, 3-Hydroxy-4-[2-[[(3R)-1-(2-hydroxyethyl)-3-piperidyl]amino]oxazolo[4,5-b]pyrazin-5-yl]-5-methyl-benzonitrile;2,2,2-trifluoroacetic Acid], the half-inhibitory concentration (IC50) is 3.3 nM at NLRP3 [1] and 24.2 nM at NLRP3 [2].

As to `Cc1cc(C#N)cc(O)c1-c1cc(F)c2oc(N[C@@H]3CCCN(CCO)C3)nc2n1` [Example 29, 4-[7-Fluoro-2-[[(3R)-1-(2-hydroxyethyl)-3-piperidyl]amino]oxazolo[4,5-b]pyridin-5-yl]-3-hydroxy-5-methyl-benzonitrile], the IC50 at NLRP3 [1] is 7 nM; at NLRP3 [2] it was 124 nM.

Take `CCN1C[C@@H](O)C[C@@H](Nc2nc3nc(-c4c(C)cc(C#N)cc4O)cnc3o2)C1` [Example 2, 4-[2-[[(3R,5S)-1-Ethyl-5-hydroxy-3-piperidyl]amino]oxazolo[4,5-b]pyrazin-5-yl]-3-hydroxy-5-methyl-benzonitrile;2,2,2-trifluoroacetic Acid]: the IC50 at NLRP3 [1] was 4.3 nM; against NLRP3 [2], 19.6 nM.

As to `COCc1cc(C#N)cc(O)c1-c1cc(OC)c2oc(N[C@@H]3CCCN(CCO)C3)nc2n1` [Example 20, 3-Hydroxy-4-[2-[[(3R)-1-(2-hydroxyethyl)-3-piperidyl]amino]-7-methoxy-oxazolo[4,5-b]pyridin-5-yl]-5-(methoxymethyl)benzonitrile], the IC50 is 75 nM on NLRP3 [1] and 68 nM at NLRP3 [2].

Regarding `COc1cc(-c2c(C)cc3c(c2O)CCO3)nc2nc(N[C@@H]3CCCN(CCO)C3)oc12` [Example 22, 5-[2-[[(3R)-1-(2-Hydroxyethyl)-3-piperidyl]amino]-7-methoxy-oxazolo[4,5-b]pyridin-5-yl]-6-methyl-2,3-dihydrobenzofuran-4-ol], the figures for the IC50 at NLRP3 [1] and at NLRP3 [2] were 5 nM and 39 nM, respectively.
